The values that follow are results of earlier work, collected in patent US20210169840A1, “COMPOSITION AND METHOD OF AN IRON SUPPLEMENT” (priority 2019, published 2021).

The conditions of this series: in vivo.

For the substance carbonyl iron, the absorption was about 70%.
